8 compounds from patent publication US11440880B2, “Thalidomide analogs and methods of use” (The USA, as represented by the Secretary, Department of …, priority 2015, dated 2022) can be followed below.

The minimal effective concentration is the smallest amount tested that counted as effective.

Data set [1] concerns fli1:EGFP zebrafish embryos (intersegmental vessel growth). Briefly: fli1:EGFP zebrafish embryo angiogenesis assay. The conditions noted are these: for minimal effective concentration: Danio rerio, lowest concentration producing an effect, compounds not producing an effect shown at the highest evaluated concentration; for fli1:EGFP angiogenesis n (survived/tested): embryos alive after 24 hours of exposure. Type of data set: in vivo. Also on record: fli1:EGFP angiogenesis n (survived/tested): concentration or dose not given beside the values. The source says:
(§1) Zebrafish embryology: The use of zebrafish embryo (Danio rerio) bioassays as a preclinical model in the classification of novel compounds has increased in recent years due to several factors including; low cost, ease of maintenance, speed of embryonic development, transparency of the embryos and genetic conservation between zebrafish and humans (Howe et al., Nature 2013; 496:498; Therapontos et al., PNAS 2009, 106:8573; Mahony et al., PNAS 2013, 110:12703; Beedie et al., Oncotarget 2016, 7(22):33237; Beedie et al., Mol. Cancer Ther. 2015, 14(10):2228). Two established zebrafish reporter lines were used—the fli1:EGFP line, where the fli1 promoter drives expression of enhanced green fluorescent protein within the developing vasculature (Lawson et al., 2002), and the Tg(mpo::EGFP) line (also known as mpo:GFP), which expresses green fluorescent protein via the neutrophil specific myeloperoxidase promoter (Renshaw et al., Blood 2006, 108:3976). The use of these zebrafish transgenic reporter lines allows for the identification of potential anti-angiogenic and anti-inflammatory compounds respectively, and both have been used previously to successfully classify the action of thalidomide analogs (Therapontos et al., 2009; Mahony et al., 2013; Beedie et al., Oncotarget 2016, 7(22):33237; Beedie et al., Mol. Cancer Ther. 2015, 14(10):2228). Zebrafish embryos were treated with analogs as previously described (Mahony et al., 2013). Briefly, fli1:EGFP embryos were collected and embryos were allowed to develop for 24 hours. Embryos were dechorionated manually and exposed to test compounds or vehicle control for a further 24 hours, imaged and analyzed for intersegmental vessel (ISV) growth. At 24 hours post fertilisation (hpf) the ISVs were ideal to study to visualize and analyze the actions of compounds on angiogenesis. At this time point ISVs were rapidly forming beneath the developing head, over the body and had yet to form in the tail (Lawson and Weinstein, Developmental Biology 2002, 248:307; Therapontos and Vargesson, Developmental Dynamics 2010, 239:2761). Additionally, these sprouts would go on to form the bilateral dorsal longitudinal anastomotic vessels. By treating before this fusion and formation occurs, the effect of each compound on the individual vessels as well as overall patterning structural integrity (Isogai et al., Development 2003, 130:5281) could be determined. Tg(mpo::EGFP) were tail fin clipped as previously detailed (Renshaw et al., 2006; Mahony et al., 2013; Beedie et al., Oncotarget 2016, 7(22):33237; Beedie et al., Mol. Cancer Ther. 2015, 14(10):2228) and incubated with test compounds or vehicle control at 72 hours post fertilization. Fish were imaged at 24 hours and the number of migratory neutrophils present at the wound site were counted. Compounds inducing an at least 50% reduction of neutrophils to the wound site were considered to have anti-inflammatory properties in this system. All larvae were assessed for viability and morphological integrity.
To determine if the thalidomide analogs had any effect on angiogenesis, fli1:EGFP embryos (Lawson and Weinstein, Developmental Biology 2002, 248:307-318) were exposed to either vehicle or a compound of interest, over a range of concentrations and over a range of time points starting at 24 hpf. Images were obtained at three time points over 24 hours after exposure to the compounds. The best concentration and time point were selected. CPS49, a compound that is chemically and structurally similar to thalidomide breakdown products, and is tetrafluorinated (which adds stability and bioactivity to the compound) and that causes severe limb defects in chicken embryos, was used as a positive control. The embryos were imaged at 48 hpf (FIGS. 3A3L) and analyzed for both vessel formation and the extent of growth of the vasculature. […]

For data set [2], the system named is mpo:GFP zebrafish embryos (neutrophil migration to the wound site). Briefly: mpo:GFP zebrafish fin-clip neutrophil migration (inflammation) assay. Type of data set: in vivo. Also on record: mpo:GFP inflammation n (survived/tested): concentration or dose not given beside the values. The conditions noted are these: for minimal effective concentration: Danio rerio, Neutrophil, lowest concentration producing an effect, compounds not producing an effect shown at the highest evaluated concentration; for mpo:GFP inflammation n (survived/tested): embryos survived/tested at the concentration given.
Excerpt: as §1
To assess the immunomodulatory effects of the thalidomide analogs, the mpo:gfp transgenic zebrafish line (Renshaw et al., Blood 2006, 108:3976-3978) was utilized because it is an accepted model of inflammation, and can be used to test the effect of anti-inflammatory agents. These embryos express GFP-tagged myeloperoxidase, where green fluorescence marks the neutrophil cells involved in the inflammatory response process, for example following injury, from 72 hours post fertilization (Renshaw et al., 2006; Mahony et al., 2013; Beedie et al., Oncotarget 2016, 7(22):33237). At 72 hpf the dorsal third of the tail fin was removed and the embryos were immersed in the desired compound or vehicle (FIGS. 5A-5C). The embryos were examined for the effect on the inflammatory response quantified as an induction and migration of neutrophils to the wound site 24 hours later.

The next data set has as its system TNF-α protein. Briefly: TNF-α protein level (ELISA) in LPS-challenged RAW 264.7 cells. The data set is classed as cell-based, mouse. The arrangement: key: NS=not significant; a “+” sign=anti-inflammatory or increased cell numbers; a “−” sign=cell toxicity or pro-inflammatory. The conditions noted are these: LPS 30 or 60 ng/mL, 24 h. The method, boiled down: (§2)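 RAW 264.7 cells pretreated 1 h with compound in DMSO vehicle, then challenged with LPS (30 or 60 ng/mL) for 24 h at 37° C. Conditioned-media nitrite by Griess (520 nm, sodium nitrite standard curve, 1.5 μM cutoff) in μM; mouse TNF-α by ELISA as pg/ml or % change from control.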
In general terms: ELISA stands for enzyme-linked immunosorbent assay.

The test system of data set [3] is nitrite levels in the culture media. Briefly: Nitrite level (Griess Reagent System) in LPS-challenged RAW 264.7 cells. Type of data set: cell-based, mouse. Also on record: key: NS=not significant; a “+” sign=anti-inflammatory or increased cell numbers; a “−” sign=cell toxicity or pro-inflammatory. The note with it: LPS 30 or 60 ng/mL, 24 h. The method, boiled down:
as §2
A general note: The Griess reaction detects nitrite, a stable product of nitric oxide.

In another data set the test system is RAW 264.7 cells. Briefly: Cell viability (CellTiter 96 AQueous One) of LPS-challenged RAW 264.7 cells. The arrangement: key: NS=not significant; a “+” sign=anti-inflammatory or increased cell numbers; a “−” sign=cell toxicity or pro-inflammatory. The data set is classed as cell-based, mouse. The method, boiled down:
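RAW 264.7 murine macrophages pretreated 1 h with compound or DMSO vehicle, then challenged with LPS (serotype 055:B5) at 30 or 60 ng/mL final for 24 h. After media replacement, viability measured by tetrazolium (MTS) conversion, absorbance at 490 nm, reported as O.D.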

Take `O=C1c2cccc([N+](=O)[O-])c2C(=O)N1C1CCC(=S)NC1=S` (stereo not drawn) [Compound 9, 2-(2,6-Dithioxo-3-piperidinyl)-4-nitro-1H-isoindole-1,3(2H)-dione]: the minimal effective concentration in data set [1] and in data set [2] was 10 µg/mL in each case. Further, the “fli1:EGFP angiogenesis n (survived/tested)” value in data set [1] is given as 14/21. The “mpo:GFP inflammation n (survived/tested)” value in data set [2] is reported as 12/12. The TNF-α result in the data set with TNF-α protein (30 μM), in the data set on TNF-α protein (60 μM) and in the data set with TNF-α protein (100 μM) was “NS” throughout. Moreover, the Nitrite result in data set [3] (30 μM), in data set [3] (60 μM) and in data set [3] (100 μM) was “+” each time. The Viability entry is on record as “NS” in the data set on RAW 264.7 cells (30 μM), “NS” in the data set with RAW 264.7 cells (60 μM) and “+” in the data set on RAW 264.7 cells (100 μM).
Regarding `O=C1CCC(N2Cc3ccccc3C2=O)C(=O)N1CSC(=S)NC1CCCCC1` (stereo not drawn) [Compound 52], the minimal effective concentration in data set [1] and in data set [2] was 100 µg/mL throughout. Moreover, the “fli1:EGFP angiogenesis n (survived/tested)” value in data set [1] is on record as 6/7. In addition, the “mpo:GFP inflammation n (survived/tested)” value in data set [2] is reported as 7/21. The TNF-α entry in the data set with TNF-α protein (1 μM), in the data set on TNF-α protein (10 μM) and in the data set on TNF-α protein (30 μM) was “+” each time. Moreover, the Viability entry in the data set on RAW 264.7 cells (1 μM), in the data set on RAW 264.7 cells (10 μM) and in the data set on RAW 264.7 cells (30 μM) was “NS” each time.
As for `O=C1CCC(N2Cc3ccccc3C2=O)C(=O)N1CSC(=S)N1CCCCC1` (stereo not drawn) [Compound 53], the minimal effective concentration in data set [1] and in data set [2] was 10 µg/mL throughout. Further, in data set [1], the “fli1:EGFP angiogenesis n (survived/tested)” value was 9/14. In addition, the “mpo:GFP inflammation n (survived/tested)” value in data set [2] is 13/19. Further, the results for the TNF-α result in the data set on TNF-α protein (1 μM), in the data set with TNF-α protein (10 μM) and with TNF-α protein (30 μM) were “+”, “+” and “NS”, respectively. Also, the Viability entry in the data set with RAW 264.7 cells (1 μM) is “−”; with RAW 264.7 cells (10 μM) it was “NS”; in the data set with RAW 264.7 cells (30 μM), “+”.
With `O=C1CCC(N2C(=O)c3cccnc3C2=O)C(=O)N1` (stereo not drawn) [Compound 57], the minimal effective concentration in data set [1] turned out to be 8.5 µg/mL; in data set [2], 17 µg/mL. The “fli1:EGFP angiogenesis n (survived/tested)” value in data set [1] is reported as 8/12. Further, the “mpo:GFP inflammation n (survived/tested)” value in data set [2] is 8/15. Besides, the TNF-α entry with TNF-α protein (1 μM), in the data set with TNF-α protein (10 μM) and with TNF-α protein (30 μM) was “NS” in each case. For the same compound, the figures for the Nitrite result in data set [3] (1 μM), in data set [3] (10 μM) and in data set [3] (30 μM) were “NS”, “+” and “+”, respectively. Moreover, the Viability entry in the data set on RAW 264.7 cells (1 μM), with RAW 264.7 cells (10 μM) and in the data set with RAW 264.7 cells (30 μM) was “NS” each time.
With `O=C1CCC(N2C(=O)c3ccncc3C2=O)C(=O)N1` (stereo not drawn) [Compound 58], the minimal effective concentration in data set [1] is 10 µg/mL; in data set [2], 5 µg/mL. Besides, the “fli1:EGFP angiogenesis n (survived/tested)” value in data set [1] is recorded as 33/33. For the same compound, the “mpo:GFP inflammation n (survived/tested)” value in data set [2] is 7/16. Moreover, the “anti-inflammatory activity (inhibition of neutrophil migration)” value in data set [2] (in words) is on record as “most effective analog at inhibiting the inflammatory response”. Besides, the TNF-α entry in the data set on TNF-α protein (1 μM), with TNF-α protein (10 μM) and in the data set with TNF-α protein (30 μM) was “NS” each time. In addition, the Nitrite result in data set [3] (1 μM), in data set [3] (10 μM) and in data set [3] (30 μM) was “+” in each case. Also, the Viability result in the data set with RAW 264.7 cells (1 μM), with RAW 264.7 cells (10 μM) and with RAW 264.7 cells (30 μM) was “NS” in each case.
Take `O=C1c2ccccc2C(=O)N1c1nc2ccc(C(F)(F)F)cc2s1` [Compound 59, 2-(6-Trifluoromethyl-benzothiazol-2-yl)-1H-isoindole-1,3(2H)-dione]: the figures for the minimal effective concentration in data set [1] and in data set [2] were 10 µg/mL and 100 µg/mL, respectively. Further, the “fli1:EGFP angiogenesis n (survived/tested)” value in data set [1] was 21/32. In addition, the “mpo:GFP inflammation n (survived/tested)” value in data set [2] is on record as 6/11. For the same compound, the TNF-α entry in the data set with TNF-α protein (1 μM) is recorded as “NS”; with TNF-α protein (10 μM), “NS”; with TNF-α protein (30 μM) it was “+”. In addition, the Nitrite entry was “+” in data set [3] (1 μM), “NS” in data set [3] (10 μM) and “+” in data set [3] (30 μM). Further, the Viability entry with RAW 264.7 cells (1 μM), in the data set on RAW 264.7 cells (10 μM) and in the data set on RAW 264.7 cells (30 μM) was “NS” each time.
Regarding `O=C1c2cccc(O)c2C(=O)N1c1nc2ccc(C(F)(F)F)cc2s1` [Compound 61], the minimal effective concentration in data set [1] stood at 100 µg/mL; in data set [2], 1 µg/mL. Also, in data set [1], the “fli1:EGFP angiogenesis n (survived/tested)” value is 3/15. In data set [2], the “mpo:GFP inflammation n (survived/tested)” value was 9/20. In addition, the TNF-α result is “NS” in the data set with TNF-α protein (1 μM), “NS” in the data set with TNF-α protein (10 μM) and “+” in the data set on TNF-α protein (30 μM). The Nitrite entry in data set [3] (1 μM) is recorded as “NS”; in data set [3] (10 μM), “+”; in data set [3] (30 μM) it was “+”. The Viability entry was “NS” in the data set on RAW 264.7 cells (1 μM), “NS” with RAW 264.7 cells (10 μM) and “−” in the data set on RAW 264.7 cells (30 μM).
`O=C1c2ccccc2CN1c1nc2ccc(C(F)(F)F)cc2s1` [Compound 62]: the minimal effective concentration in data set [1] and in data set [2] was 10 µg/mL in each case. Moreover, in data set [1], the “fli1:EGFP angiogenesis n (survived/tested)” value is 18/20. Besides, in data set [2], the “mpo:GFP inflammation n (survived/tested)” value was 6/20. The TNF-α entry with TNF-α protein (1 μM), with TNF-α protein (10 μM) and with TNF-α protein (30 μM) was “NS” in each case. The Nitrite result in data set [3] (1 μM) is recorded as “NS”; in data set [3] (10 μM), “NS”; in data set [3] (30 μM) it was “+”. For the same compound, the Viability result in the data set with RAW 264.7 cells (1 μM), with RAW 264.7 cells (10 μM) and in the data set with RAW 264.7 cells (30 μM) was “NS” throughout.
